Data published in ChEMBL document CHEMBL3132769, “Fragment growing to retain or alter the selectivity of anchored kinase hinge-binding fragments” (Medchemcomm, 2014).

Columns and labels:
[1] = molecular target: Mitogen-activated protein kinase kinase kinase kinase 4 (Homo sapiens) (UniProt O95819); assay: Inhibition of human HGK catalytic domain expressed in baculovirus assessed as substrate phosphorylation using fluorescence-labelled peptides as substrate at 0.2 uM after 90 mins by microfluidic peptide phosphorylation assay
Chain of Mitogen-activated protein kinase kinase kinase kinase 4 (Homo sapiens) (O95819 2-1239 limits assumed): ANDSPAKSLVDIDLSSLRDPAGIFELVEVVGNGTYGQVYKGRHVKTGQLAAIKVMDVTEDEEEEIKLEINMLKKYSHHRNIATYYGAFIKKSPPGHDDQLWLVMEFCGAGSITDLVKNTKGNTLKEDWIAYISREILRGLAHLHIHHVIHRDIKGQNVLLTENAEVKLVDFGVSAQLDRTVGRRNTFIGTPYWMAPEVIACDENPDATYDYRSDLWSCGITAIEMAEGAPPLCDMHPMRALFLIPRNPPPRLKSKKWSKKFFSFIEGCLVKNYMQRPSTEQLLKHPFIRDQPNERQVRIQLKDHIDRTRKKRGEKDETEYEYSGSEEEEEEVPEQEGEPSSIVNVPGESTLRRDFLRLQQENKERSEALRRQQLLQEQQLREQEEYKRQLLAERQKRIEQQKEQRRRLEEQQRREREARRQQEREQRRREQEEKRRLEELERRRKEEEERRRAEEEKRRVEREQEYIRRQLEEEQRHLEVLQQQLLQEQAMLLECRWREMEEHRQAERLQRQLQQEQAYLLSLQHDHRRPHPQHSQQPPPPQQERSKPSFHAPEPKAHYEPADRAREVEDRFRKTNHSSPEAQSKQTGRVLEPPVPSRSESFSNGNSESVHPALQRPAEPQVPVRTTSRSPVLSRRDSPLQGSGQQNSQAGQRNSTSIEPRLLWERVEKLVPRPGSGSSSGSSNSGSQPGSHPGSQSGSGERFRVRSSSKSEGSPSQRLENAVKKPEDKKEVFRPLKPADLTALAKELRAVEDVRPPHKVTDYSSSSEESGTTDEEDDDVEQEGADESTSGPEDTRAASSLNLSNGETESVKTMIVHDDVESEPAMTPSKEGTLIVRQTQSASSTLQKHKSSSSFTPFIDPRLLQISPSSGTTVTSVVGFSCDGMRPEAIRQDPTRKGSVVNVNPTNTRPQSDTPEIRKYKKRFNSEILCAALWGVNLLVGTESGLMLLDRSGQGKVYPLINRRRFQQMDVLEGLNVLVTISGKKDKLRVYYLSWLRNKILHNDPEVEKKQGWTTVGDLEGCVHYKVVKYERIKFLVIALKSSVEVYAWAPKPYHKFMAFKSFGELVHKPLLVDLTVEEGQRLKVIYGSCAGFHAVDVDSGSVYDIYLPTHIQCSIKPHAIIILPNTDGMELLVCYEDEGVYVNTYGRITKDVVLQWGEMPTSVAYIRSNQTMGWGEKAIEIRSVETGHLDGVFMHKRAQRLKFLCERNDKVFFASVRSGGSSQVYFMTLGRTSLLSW

[2] = molecular target: T1, Serine/threonine-protein kinase BRSK2 (Homo sapiens) (UniProt Q8IWQ3); assay: Inhibition of human truncated BRSK2 expressed in baculovirus assessed as substrate phosphorylation using fluorescence-labelled peptides as substrate at 8 uM after 90 mins by microfluidic peptide phosphorylation assay
T1 sequence (whole entry): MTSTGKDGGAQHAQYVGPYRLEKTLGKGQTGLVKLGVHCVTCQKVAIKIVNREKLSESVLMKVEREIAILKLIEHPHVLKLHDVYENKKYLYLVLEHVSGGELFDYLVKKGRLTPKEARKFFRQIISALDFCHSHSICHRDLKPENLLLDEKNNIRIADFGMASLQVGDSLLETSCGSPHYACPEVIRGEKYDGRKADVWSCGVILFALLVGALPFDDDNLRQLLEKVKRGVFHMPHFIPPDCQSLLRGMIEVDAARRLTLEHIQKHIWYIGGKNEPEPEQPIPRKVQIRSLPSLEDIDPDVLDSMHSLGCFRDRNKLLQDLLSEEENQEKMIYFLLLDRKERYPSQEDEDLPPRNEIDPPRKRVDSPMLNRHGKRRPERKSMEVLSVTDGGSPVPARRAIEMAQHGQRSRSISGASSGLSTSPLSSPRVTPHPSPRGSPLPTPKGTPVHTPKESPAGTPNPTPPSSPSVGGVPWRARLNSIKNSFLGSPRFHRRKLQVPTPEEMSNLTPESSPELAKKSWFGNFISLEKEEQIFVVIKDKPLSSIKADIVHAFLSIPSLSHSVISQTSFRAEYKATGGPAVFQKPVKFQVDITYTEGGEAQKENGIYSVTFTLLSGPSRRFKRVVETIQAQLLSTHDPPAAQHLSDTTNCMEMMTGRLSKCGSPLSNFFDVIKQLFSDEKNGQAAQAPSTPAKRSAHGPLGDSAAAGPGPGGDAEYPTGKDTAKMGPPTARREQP

[3] = molecular target: Ribosomal protein S6 kinase alpha-4 (Homo sapiens) (UniProt O75676); assay: Inhibition of human full length MSK2 expressed in baculovirus assessed as substrate phosphorylation using fluorescence-labelled peptides as substrate at 8 uM after 90 mins by microfluidic peptide phosphorylation assay
Chain of Ribosomal protein S6 kinase alpha-4 (Homo sapiens) (O75676 whole entry, looked up, the tested form may be a part): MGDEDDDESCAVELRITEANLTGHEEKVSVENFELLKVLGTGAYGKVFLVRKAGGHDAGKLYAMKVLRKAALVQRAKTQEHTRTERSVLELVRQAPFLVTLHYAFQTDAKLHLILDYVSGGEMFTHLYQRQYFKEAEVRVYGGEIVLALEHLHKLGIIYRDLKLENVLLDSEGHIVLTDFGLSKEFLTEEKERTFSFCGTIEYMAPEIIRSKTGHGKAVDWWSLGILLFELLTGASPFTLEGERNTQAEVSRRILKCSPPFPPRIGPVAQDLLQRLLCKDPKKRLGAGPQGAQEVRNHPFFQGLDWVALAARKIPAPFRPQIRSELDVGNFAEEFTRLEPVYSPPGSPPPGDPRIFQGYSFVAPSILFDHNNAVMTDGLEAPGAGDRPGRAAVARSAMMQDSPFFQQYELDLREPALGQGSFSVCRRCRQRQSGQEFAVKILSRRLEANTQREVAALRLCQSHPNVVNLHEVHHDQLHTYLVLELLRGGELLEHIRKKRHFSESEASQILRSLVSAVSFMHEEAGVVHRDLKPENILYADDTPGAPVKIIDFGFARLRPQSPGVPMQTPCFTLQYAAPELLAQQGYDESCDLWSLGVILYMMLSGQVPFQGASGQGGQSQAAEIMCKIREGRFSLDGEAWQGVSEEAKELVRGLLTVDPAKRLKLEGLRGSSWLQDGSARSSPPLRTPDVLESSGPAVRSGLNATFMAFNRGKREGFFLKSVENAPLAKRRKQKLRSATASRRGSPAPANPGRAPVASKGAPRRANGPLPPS

[4] = molecular target: Cyclin-dependent kinase 2 (Homo sapiens) (UniProt P24941); assay: Inhibition of human full length CDK2 expressed in baculovirus assessed as substrate phosphorylation using fluorescence-labelled peptides as substrate at 2 uM after 90 mins by microfluidic peptide phosphorylation assay
[5] = molecular target: T2, MAP kinase-activated protein kinase 5 (Homo sapiens) (UniProt Q8IW41); assay: Inhibition of human full length PRAK expressed in baculovirus assessed as substrate phosphorylation using fluorescence-labelled peptides as substrate at 2 uM after 90 mins by microfluidic peptide phosphorylation assay
T2 sequence (whole entry): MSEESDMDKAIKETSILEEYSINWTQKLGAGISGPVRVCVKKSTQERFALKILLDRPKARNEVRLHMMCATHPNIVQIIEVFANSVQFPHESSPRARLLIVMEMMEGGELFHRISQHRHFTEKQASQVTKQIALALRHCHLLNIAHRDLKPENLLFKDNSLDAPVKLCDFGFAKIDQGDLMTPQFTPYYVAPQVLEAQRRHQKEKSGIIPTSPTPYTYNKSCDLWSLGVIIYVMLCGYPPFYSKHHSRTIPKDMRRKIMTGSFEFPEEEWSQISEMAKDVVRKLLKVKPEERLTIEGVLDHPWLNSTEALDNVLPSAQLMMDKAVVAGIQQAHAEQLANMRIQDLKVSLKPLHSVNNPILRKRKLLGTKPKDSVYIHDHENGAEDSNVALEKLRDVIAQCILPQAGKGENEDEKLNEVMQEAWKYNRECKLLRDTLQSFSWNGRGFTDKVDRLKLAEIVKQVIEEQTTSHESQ

[6] = molecular target: Receptor-type tyrosine-protein kinase FLT3 (Homo sapiens) (UniProt P36888); assay: Inhibition of human FLT3 catalytic domain expressed in baculovirus assessed as substrate phosphorylation using fluorescence-labelled peptides as substrate at 2 uM after 90 mins by microfluidic peptide phosphorylation assay
[7] = molecular target: Insulin-like growth factor 1 receptor (Homo sapiens) (UniProt P08069); assay: Inhibition of human IGF1R catalytic domain expressed in baculovirus assessed as substrate phosphorylation using fluorescence-labelled peptides as substrate at 1000 uM after 90 mins by microfluidic peptide phosphorylation assay
[8] = molecular target: Epidermal growth factor receptor (Homo sapiens) (UniProt P00533); assay: Inhibition of human EGFR catalytic domain expressed in baculovirus assessed as substrate phosphorylation using fluorescence-labelled peptides as substrate at 1000 uM after 90 mins by microfluidic peptide phosphorylation assay
Chain of Epidermal growth factor receptor (Homo sapiens) (P00533 whole entry, the tested form may be a part): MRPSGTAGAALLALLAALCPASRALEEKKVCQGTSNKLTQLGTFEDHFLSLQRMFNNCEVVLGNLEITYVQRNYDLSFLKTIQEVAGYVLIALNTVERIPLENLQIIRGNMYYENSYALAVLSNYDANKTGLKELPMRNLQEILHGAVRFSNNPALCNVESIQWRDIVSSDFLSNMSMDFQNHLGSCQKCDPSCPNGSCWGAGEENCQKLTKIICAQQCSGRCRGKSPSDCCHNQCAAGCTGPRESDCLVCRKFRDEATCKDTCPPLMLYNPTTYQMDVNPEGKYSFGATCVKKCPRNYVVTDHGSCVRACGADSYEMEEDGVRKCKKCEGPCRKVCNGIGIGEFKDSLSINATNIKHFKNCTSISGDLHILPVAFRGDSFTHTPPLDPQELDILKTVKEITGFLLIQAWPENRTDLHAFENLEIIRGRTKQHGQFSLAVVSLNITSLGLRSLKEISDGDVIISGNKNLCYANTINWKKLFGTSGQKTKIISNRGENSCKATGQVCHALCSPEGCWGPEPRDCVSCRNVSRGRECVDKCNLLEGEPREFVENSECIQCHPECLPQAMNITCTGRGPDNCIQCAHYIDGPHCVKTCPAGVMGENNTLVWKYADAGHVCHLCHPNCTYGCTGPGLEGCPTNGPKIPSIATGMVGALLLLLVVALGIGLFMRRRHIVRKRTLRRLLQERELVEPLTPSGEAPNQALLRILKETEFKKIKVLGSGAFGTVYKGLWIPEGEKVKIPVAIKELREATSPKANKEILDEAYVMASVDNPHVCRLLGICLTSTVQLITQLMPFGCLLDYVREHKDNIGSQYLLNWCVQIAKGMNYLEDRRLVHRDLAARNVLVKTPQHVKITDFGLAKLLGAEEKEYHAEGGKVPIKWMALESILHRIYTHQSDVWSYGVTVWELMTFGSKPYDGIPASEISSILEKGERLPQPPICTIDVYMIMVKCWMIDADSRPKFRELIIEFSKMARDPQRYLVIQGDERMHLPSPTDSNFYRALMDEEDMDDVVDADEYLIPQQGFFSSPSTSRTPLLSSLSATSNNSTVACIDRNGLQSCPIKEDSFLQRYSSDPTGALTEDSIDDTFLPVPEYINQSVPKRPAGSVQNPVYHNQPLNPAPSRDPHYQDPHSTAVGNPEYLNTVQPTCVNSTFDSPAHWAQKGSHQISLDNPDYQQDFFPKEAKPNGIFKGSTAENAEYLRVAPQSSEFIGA

[9] = molecular target: Ribosomal protein S6 kinase alpha-4 (Homo sapiens) (UniProt O75676); assay: Inhibition of human full length MSK2 expressed in baculovirus assessed as substrate phosphorylation using fluorescence-labelled peptides as substrate at 0.06 uM after 90 mins by microfluidic peptide phosphorylation assay
[10] = tested on: Tyrosine-protein kinase ABL1 (Homo sapiens), P00519 [Q252H]; assay: Inhibition of human truncated ABL Q252H mutant expressed in baculovirus assessed as substrate phosphorylation using fluorescence-labelled peptides as substrate at 0.06 uM after 90 mins by microfluidic peptide phosphorylation assay
[11] = molecular target: Protein kinase C theta type (Homo sapiens) (UniProt Q04759); assay: Inhibition of human truncated PKC theta expressed in baculovirus assessed as substrate phosphorylation using fluorescence-labelled peptides as substrate at 9 uM after 90 mins by microfluidic peptide phosphorylation assay
Chain of Protein kinase C theta type (Homo sapiens) (Q04759 whole entry, looked up, the tested form may be a part): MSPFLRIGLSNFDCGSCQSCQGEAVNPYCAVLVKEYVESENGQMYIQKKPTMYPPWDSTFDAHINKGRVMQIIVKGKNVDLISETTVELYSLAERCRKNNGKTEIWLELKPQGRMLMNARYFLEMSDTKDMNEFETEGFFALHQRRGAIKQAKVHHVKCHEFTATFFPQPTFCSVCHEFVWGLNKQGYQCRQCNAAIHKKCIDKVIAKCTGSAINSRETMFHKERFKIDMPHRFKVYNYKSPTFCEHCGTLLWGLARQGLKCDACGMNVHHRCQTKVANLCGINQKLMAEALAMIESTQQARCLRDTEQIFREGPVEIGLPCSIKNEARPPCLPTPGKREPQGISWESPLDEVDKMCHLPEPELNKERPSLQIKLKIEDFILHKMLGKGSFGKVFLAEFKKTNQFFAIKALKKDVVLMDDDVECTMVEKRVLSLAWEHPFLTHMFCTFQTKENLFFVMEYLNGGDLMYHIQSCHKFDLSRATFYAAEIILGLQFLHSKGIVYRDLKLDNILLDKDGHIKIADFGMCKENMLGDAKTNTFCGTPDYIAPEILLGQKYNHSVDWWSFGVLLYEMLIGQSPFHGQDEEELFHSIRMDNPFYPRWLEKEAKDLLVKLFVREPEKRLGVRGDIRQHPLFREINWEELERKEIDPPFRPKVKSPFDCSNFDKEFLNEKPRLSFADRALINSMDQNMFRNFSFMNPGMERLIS

[12] = molecular target: RAF proto-oncogene serine/threonine-protein kinase (Homo sapiens) (UniProt P04049); assay: Inhibition of human truncated c-Raf expressed in baculovirus assessed as substrate phosphorylation using fluorescence-labelled peptides as substrate at 9 uM after 90 mins by microfluidic peptide phosphorylation assay
Chain of RAF proto-oncogene serine/threonine-protein kinase (Homo sapiens) (P04049 whole entry, the tested form may be a part): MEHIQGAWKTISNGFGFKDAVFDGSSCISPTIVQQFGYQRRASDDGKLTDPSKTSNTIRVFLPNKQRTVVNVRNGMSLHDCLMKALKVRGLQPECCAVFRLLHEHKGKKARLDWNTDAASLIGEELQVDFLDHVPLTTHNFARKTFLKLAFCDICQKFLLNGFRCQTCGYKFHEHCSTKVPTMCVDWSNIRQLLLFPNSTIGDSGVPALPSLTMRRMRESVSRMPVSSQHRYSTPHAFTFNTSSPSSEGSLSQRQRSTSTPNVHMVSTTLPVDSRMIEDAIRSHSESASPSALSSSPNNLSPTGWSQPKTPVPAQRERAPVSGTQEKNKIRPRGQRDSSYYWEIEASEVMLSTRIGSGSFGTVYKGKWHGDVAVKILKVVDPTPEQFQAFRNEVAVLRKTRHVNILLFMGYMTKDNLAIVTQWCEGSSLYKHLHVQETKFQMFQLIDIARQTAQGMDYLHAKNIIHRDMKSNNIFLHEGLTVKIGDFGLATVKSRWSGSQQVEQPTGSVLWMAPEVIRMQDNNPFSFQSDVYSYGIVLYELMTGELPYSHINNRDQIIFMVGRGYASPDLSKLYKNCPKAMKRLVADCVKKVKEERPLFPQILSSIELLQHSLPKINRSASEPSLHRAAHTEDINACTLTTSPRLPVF

[13] = tested on: Tyrosine-protein kinase ABL1 (Homo sapiens), P00519 [Q252H]; assay: Inhibition of human truncated ABL Q252H mutant expressed in baculovirus assessed as substrate phosphorylation using fluorescence-labelled peptides as substrate at 9 uM after 90 mins by microfluidic peptide phosphorylation assay

Clc1ccc(C2(c3ccc(-c4ncnc5[nH]cnc45)cc3)CCNCC2)cc1
inhibition [1]: 3%

NCC1CCN(c2ncnc3[nH]ccc23)CC1
inhibition [2]: 56.5%
inhibition [3]: 50%

NC1CCN(c2ncnc3[nH]ccc23)CC1
inhibition [4]: 0%
inhibition [5]: 7%
inhibition [6]: 0%

c1cnc2[nH]ccc2c1
inhibition [7]: 51.5%
inhibition [8]: 13.5%

NC1(Cc2ccc(Cl)cc2)CCN(c2ncnc3[nH]ccc23)CC1
inhibition [9]: 0%
inhibition [10]: 0%

NCC1CN(c2ncnc3[nH]c4cnccc4c23)CCO1 (stereo not drawn)
inhibition [11]: 52.5%
inhibition [12]: 7.5%
inhibition [13]: 6%
